Data from paper PMC6952396, “Structural basis for itraconazole-mediated NPC1 inhibition” (Nature Communications, 2020).

What was measured:
NPC1 [1] = target: T1, NPC1 (Cricetulus griseus, UniProt Q9JLG3); experiment: Cholesterol re-esterification (ACAT) assay measuring NPC1-mediated export of cholesterol from lysosomes in CHO-7 cells; format: cell-based; details: for cholesteryl [14C] oleate formed, Repeat 1 / cholesteryl [14C] oleate formed, Repeat 2: Fig. 2 source data; for cholesteryl [14C] oleate formed, Repeat 3 / cholesteryl [14C] oleate formed, Repeat 4: Supplementary Fig. 3 source data
T1 construct: CHO-7 cells in the medium are deprived of cholesterol to induce the LDL receptors biosynthesis; endogenous in cells; host or cells: CHO-7 cells
T1 sequence (Q9JLG3 23-1277): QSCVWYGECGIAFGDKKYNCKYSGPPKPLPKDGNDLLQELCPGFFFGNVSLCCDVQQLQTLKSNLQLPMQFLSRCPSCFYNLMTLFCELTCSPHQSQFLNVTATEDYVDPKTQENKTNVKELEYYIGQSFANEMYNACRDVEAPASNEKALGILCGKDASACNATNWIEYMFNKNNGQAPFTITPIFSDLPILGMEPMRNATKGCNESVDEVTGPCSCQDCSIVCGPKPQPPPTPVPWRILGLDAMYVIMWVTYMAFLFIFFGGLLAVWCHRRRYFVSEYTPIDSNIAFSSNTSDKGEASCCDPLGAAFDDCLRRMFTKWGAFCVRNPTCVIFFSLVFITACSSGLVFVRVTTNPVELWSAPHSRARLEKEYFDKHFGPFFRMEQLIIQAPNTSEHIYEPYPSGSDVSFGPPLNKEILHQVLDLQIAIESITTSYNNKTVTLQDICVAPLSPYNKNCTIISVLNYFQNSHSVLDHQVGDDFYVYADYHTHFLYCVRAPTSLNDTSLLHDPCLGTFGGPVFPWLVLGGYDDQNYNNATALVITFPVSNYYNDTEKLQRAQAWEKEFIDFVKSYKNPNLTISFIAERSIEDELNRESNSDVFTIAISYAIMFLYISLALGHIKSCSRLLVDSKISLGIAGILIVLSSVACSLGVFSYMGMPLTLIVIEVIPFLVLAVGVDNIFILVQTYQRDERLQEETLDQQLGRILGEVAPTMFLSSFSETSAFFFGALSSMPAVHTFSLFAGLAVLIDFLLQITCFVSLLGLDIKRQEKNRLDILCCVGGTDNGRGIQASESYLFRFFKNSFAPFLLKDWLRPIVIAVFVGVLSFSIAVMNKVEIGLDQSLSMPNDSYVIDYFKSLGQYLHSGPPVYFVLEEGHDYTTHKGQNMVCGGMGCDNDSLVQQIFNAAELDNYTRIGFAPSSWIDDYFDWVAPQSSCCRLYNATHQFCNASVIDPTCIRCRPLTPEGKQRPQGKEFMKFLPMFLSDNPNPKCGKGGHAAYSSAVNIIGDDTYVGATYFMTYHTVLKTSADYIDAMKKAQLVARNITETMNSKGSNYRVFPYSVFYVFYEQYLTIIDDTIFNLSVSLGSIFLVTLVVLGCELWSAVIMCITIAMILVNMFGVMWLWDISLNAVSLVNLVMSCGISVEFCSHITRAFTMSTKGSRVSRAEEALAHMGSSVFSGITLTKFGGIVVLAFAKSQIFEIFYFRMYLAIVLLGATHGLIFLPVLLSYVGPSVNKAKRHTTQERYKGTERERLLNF
Source text: Itraconazole has three chiral centers (Supplementary Fig. 2a). The pharmaceutical form contains four cis-stereoisomers in a 1:1:1:1 molar ratio (Supplementary Fig. 2a–d). To determine the activity of the cis-stereoisomers, the individual isomers were isolated and identified based on their optical rotation in chloroform following a previous report (Supplementary Fig. 2e)[26]. Then, they were separately tested in a cholesterol re-esterification assay used to measure NPC1-mediated export of cholesterol from lysosomes. Briefly, CHO-7 cells in the medium are deprived of cholesterol to induce the LDL receptors biosynthesis. The cells are then incubated with fetal calf serum (FCS) that contains LDL. The LDL-derived cholesterol will now be transported by functional NPC1 protein from the lysosome to the endoplasmic reticulum (ER). The acyl-CoA:cholesterol actyltransferase named ACAT can now re-esterify the cholesterol in the ER. Therefore, the cells were pulse-labeled with [^14C] oleate and we can measure the synthesis of cholesteroyl [^14C] oleate to evaluate the activity of NPC1 protein. Using this assay, we tested the ability of various itraconazole to inhibit NPC1 activity.
Fig. 2 ACAT activity of itraconazole and ketoconazole in CHO-7 cells. On day 0, CHO-7 cells were set up in medium A with 5% LPDS at 2.5 × 10^5 cells/well in 6-well dish. On day 2, cells were switched to medium A with 5% LPDS containing 50 µM sodium compactin and 50 µM sodium mevalonate. On day 3 the cells received fresh medium B containing compactin and mevalonate with various concentration compounds in the presence of 10% FCS containing lipoproteins. After incubation for 4 h at 37 °C, each cell monolayer was pulse-labeled for 2 h with 0.1 mM sodium [^14C] oleate (5792 dpm/nmol). The cells were then harvested for measurement of their content of cholesteryl [^14C] oleate and [^14C] triglycerides, as described in Methods. […] Itraconazole mixture, isomer A (Supplementary Fig. 2a), isomer B (Supplementary Fig. 2b) and isomer C (Supplementary Fig. 2c) were added at final concentrations of 0.3 μM. The isomer D (Supplementary Fig. 2d), I-Br and ketoconazole were added at final concentrations of 1 μM. The biological repeats are shown as individual values. Source data are provided as a Source Data file.
On day 0, cells were set up in medium A with 5% LPDS at 2.5 × 10^5 cells/well in six-well dish. On day 2, cells were switched to medium A with 5% LPDS containing 50 µM sodium compactin and 50 µM sodium mevalonate. On day 3 the cells received fresh medium B containing compactin and mevalonate with indicated concentration triazole compounds in the presence of 10% FCS containing lipoproteins. After incubation for 4 h at 37 °C, each cell monolayer was pulse-labeled for 2 h with 0.1 mM sodium [^14C] oleate (5792 dpm/nmol). The cells were then harvested for measurement of their content of cholesteryl [^14C] oleate and [^14C] triglycerides.
The rate of incorporation of [^14C] oleate into cholesteryl [^14C] oleate and [^14C] triglycerides by monolayers of NPC1^−/− cells and CHO-7 cells was measured as described previously. In brief, cells were switched to medium containing LPDS supplemented with compactin and mevolonate at 16 h before the experiments. On the day of the experiment, cells were incubated for 4 h with fresh medium containing FCS as a source of cholesterol-containing lipoproteins. Cells were then pulse –labeled for 2 h with 0.1 mM sodium [^14C] oleate. Cells were then washed, and the lipids were extracted in hexane:isopropanol (3:2, vol:vol), separated on a silica gel G thin-layer chromatogram (developed in heptane:ethylether:acetic acid, 90:30:1), and quantified by scintillation counting with the use of an internal standard for recovery.

NPC1 [2] = target: T1, NPC1; details: cultured cells; cited from earlier work
[3] = test system: NPC1-mediated cholesterol export; details: cited from earlier work

CCC(C)n1ncn(-c2ccc(N3CCN(c4ccc(OCC5COC(Cn6cncn6)(c6ccc(Cl)cc6Cl)O5)cc4)CC3)cc2)c1=O (stereo not drawn) [Itra-D]
cholesteryl [14C] oleate formed, Repeat 1 (NPC1 [1]; 0.01 uM compound): 5.124 nanomoles formed per hour per milligram cell protein
cholesteryl [14C] oleate formed, Repeat 2 (NPC1 [1]; 0.01 uM compound): 4.829 nanomoles formed per hour per milligram cell protein
cholesteryl [14C] oleate formed, Repeat 3 (NPC1 [1]; 0.01 uM compound): 5.364 nanomoles formed per hour per milligram cell protein
cholesteryl [14C] oleate formed, Repeat 4 (NPC1 [1]; 0.01 uM compound): 5.55 nanomoles formed per hour per milligram cell protein
cholesteryl [14C] oleate formed, Repeat 1 (NPC1 [1]; 0.03 uM compound): 5.201 nanomoles formed per hour per milligram cell protein
cholesteryl [14C] oleate formed, Repeat 2 (NPC1 [1]; 0.03 uM compound): 5.414 nanomoles formed per hour per milligram cell protein
cholesteryl [14C] oleate formed, Repeat 3 (NPC1 [1]; 0.03 uM compound): 4.815 nanomoles formed per hour per milligram cell protein
cholesteryl [14C] oleate formed, Repeat 4 (NPC1 [1]; 0.03 uM compound): 5.633 nanomoles formed per hour per milligram cell protein
cholesteryl [14C] oleate formed, Repeat 1 (NPC1 [1]; 0.06 uM compound): 4.957 nanomoles formed per hour per milligram cell protein
cholesteryl [14C] oleate formed, Repeat 2 (NPC1 [1]; 0.06 uM compound): 4.372 nanomoles formed per hour per milligram cell protein
cholesteryl [14C] oleate formed, Repeat 3 (NPC1 [1]; 0.06 uM compound): 4.6935 nanomoles formed per hour per milligram cell protein
cholesteryl [14C] oleate formed, Repeat 4 (NPC1 [1]; 0.06 uM compound): 4.899 nanomoles formed per hour per milligram cell protein
cholesteryl [14C] oleate formed, Repeat 1 (NPC1 [1]; 0.1 uM compound): 4.223 nanomoles formed per hour per milligram cell protein
cholesteryl [14C] oleate formed, Repeat 2 (NPC1 [1]; 0.1 uM compound): 3.931 nanomoles formed per hour per milligram cell protein
cholesteryl [14C] oleate formed, Repeat 3 (NPC1 [1]; 0.1 uM compound): 3.618 nanomoles formed per hour per milligram cell protein
cholesteryl [14C] oleate formed, Repeat 4 (NPC1 [1]; 0.1 uM compound): 3.755 nanomoles formed per hour per milligram cell protein
cholesteryl [14C] oleate formed, Repeat 1 (NPC1 [1]; 0.3 uM compound): 1.696 nanomoles formed per hour per milligram cell protein
cholesteryl [14C] oleate formed, Repeat 2 (NPC1 [1]; 0.3 uM compound): 0.8471 nanomoles formed per hour per milligram cell protein
cholesteryl [14C] oleate formed, Repeat 3 (NPC1 [1]; 0.3 uM compound): 0.9245 nanomoles formed per hour per milligram cell protein
cholesteryl [14C] oleate formed, Repeat 4 (NPC1 [1]; 0.3 uM compound): 0.77 nanomoles formed per hour per milligram cell protein
cholesteryl [14C] oleate formed, Repeat 1 (NPC1 [1]; 1 uM compound): 0.3184 nanomoles formed per hour per milligram cell protein
cholesteryl [14C] oleate formed, Repeat 2 (NPC1 [1]; 1 uM compound): 0.2982 nanomoles formed per hour per milligram cell protein
cholesteryl [14C] oleate formed, Repeat 3 (NPC1 [1]; 1 uM compound): 0.3042 nanomoles formed per hour per milligram cell protein
cholesteryl [14C] oleate formed, Repeat 4 (NPC1 [1]; 1 uM compound): 0.4741 nanomoles formed per hour per milligram cell protein
IC50 (NPC1 [1]; read-out: IC50 (concentration at which each compound inhibited cholesterol esterification by 50%), 10% FCS, 4 h then 2 h [14C] oleate pulse): 175 nM

CCN(CC)CCO[C@H]1CC[C@@]2(C)C(=CC[C@@H]3[C@@H]2CC[C@]2(C)C(=O)CC[C@@H]32)C1 [U18666A]
inhibition of P-X cross-linking to NPC1 (NPC1 [2]): inhibited
inhibition of cholesterol export from lysosomes [3]: inhibit cholesterol export from lysosomes
